Structures can show the parent of a compound that is named as a salt.
Assays:
[1] = Dose-dependent in vivo toxicity / maximum tolerated dose of HF; set-up: species or system WT C57BL/6 mice
From the text: (§1) Keap1^FB/FB:Kras^G12D mice were produced in the same manner as in Cancer Res, 15 Aug. 2020, 80(16):3331-3344, Genes & Dev., 2001, 15:3243-3248, and Am J Respir Cell Mol Biol., 2010 May, 42(5):524-36. All the mice used in this test had the C57BL/6J background. Saline, HF, and HFm were intravenously injected to the mice. All the in vivo experiments were approved by the animal welfare committee of Tohoku University.
(§2) Monocytes were isolated from the bone marrow, the spleen, and the thymus using Ficoll-Paque PREMIUM 1.084 (Cytiva 17-5446-02). The monocytes were stained with allophycocyanin-eFluor 780 conjugate anti-c-Kit (Invitrogen; Clone 2B8), Brilliant Violet 421 conjugate anti-B220 (Biolegend; Clone RA2-6B2), phycoerythrin conjugate anti-F4/80 (Biolegend; Clone BM8), fluorescein isothiocyanate conjugate anti-Ly6G (Biolegend; Clone 1A8), Brilliant Violet 421 conjugate anti-CD11b (Biolegend; Clone M1/70), fluorescein isothiocyanate conjugate anti-CD71 (eBiosciences; CloneR17217), phycoerythrin conjugate anti-Ter119 (eBiosciences; Clone TER-119), PE-Cyanine7 conjugate anti-CD4 (Invitrogen; CloneGK1.5), and allophycocyanin conjugate anti-CD8 (Biolegend; Clone S3-6.7). The dead cells were removed using propidium iodide staining. The analysis was made using FACSVerse (BD Biosciences). The data were analyzed using FlowJo software (BD Biosciences).
Preclinical animal testing was conducted to determine the maximum tolerated dose (hereinafter also referred to as MTD) of HF. […] Thus, in this test, HF was administered to WT C57BL/6 mice (eight to 12 weeks old, both females and males) incrementally in the range of 0.25 mg/kg to 1 mg/kg (FIG. 2A). HF was administered to the tail veins every two days four times in total.

[2] = test system: Keap1 KO-mCherry cells (Hepa1); assay: Cell fluorescence analysis (relative fluorescence as cell survival) after HF treatment; assay type: cell-based; details: HF at various doses up to 50 nM, 48 hours
Experimental: (§3) WT-GFP and Keap1-mCherry Hepa1 cells were prepared in the same manner as in Mol Cell Biol., 2020 Oct 26, 40(22). The cells were maintained in Dulbecco's modified Eagle's medium (DMEM) containing 10% (v/v) fetal bovine serum and antibiotics (penicillin-streptomycin) at 37° C. and 5% CO2.
(§4) For cell fluorescence analysis, 4×10^4 WT-GFP cells and 2×10^4 Keap1-mCherry Hepa1 cells were cultured separately on day −1 in a black 96-well plate (Corning; number 3904). On day 0, HF or saline was introduced at various concentrations, and then the plate was returned to an incubator at 37° C. until day 2. The fluorescence intensities of the cells were measured using a PHERAstar FS microplate reader (BMG Labtech, Ortenberg, Germany).
(§5) HF has been reported to suppress Nrf2 accumulation in cells (FIG. 1A). To examine the tumor suppressive role of HF in Nrf2-activated tumor cells, enhanced green fluorescent protein (EGFP)-expressing wild type (WT) Hepa1 cells (hereinafter also referred to as “WT-GFP cells”) and mCherry-expressing Keap1 knockout cells (hereinafter also referred to as “Keap1 KO-mCherry cells”) were treated with HF. Both isogenic cell lines used were the same as those in Mol Cell Biol., 2020 Oct 26, 40(22). […] It has been shown in Mol Cell Biol., 2020 Oct 26, 40(22) that there is a correlation between the relative fluorescence intensity and the cell survival rate.

[3] = test system: WT-GFP cells (Hepa1); assay: as above; assay type: cell-based; details: HF at various doses up to 50 nM, 48 hours
Experimental: as §3, §4, §5

[4] = Systemic side effect markers in cancer-bearing mice; assay type: in vivo, Keap1^FB/FB:Kras^G12D mice
From the text: as §2
Because HF is slowly and continuously released from HFm through encapsulation of HF in polymer micelles, it was supposed that HFm may act as a far safer drug than HF. Thus, because the MTD of HF was 0.75 mg/kg bw, various side effect markers were examined in cancer-bearing model mice treated with 0.75 mg/kg bw of HFm and compared with those of the mice treated with the same amount of HF.
(§6) After KRAS-driven lung adenocarcinoma was grown for 17 weeks, the mice were treated with saline, HF (0.25 mg/kg), or HFm (0.25 mg/kg) every two days four times in total (FIG. 7A).

[5] = test system: Nrf2 protein in Keap1 KO-mCherry cells; assay: Immunoblotting of Nrf2 protein after HF treatment; assay type: cell-based; details: 50 nM HF, 0-18 hours, whole cell lysates
Experimental: (§7) For analyzing cultured cells, 1×10^6 WT-GFP and Keap1-mCherry Hepa1 cells were separately seeded on day −1 and treated with 50 nM HF on the next day (day 0). Whole cell lysates were prepared by lysing the cells with SDS buffer (0.25 M Tris-HCl (pH 6.8), 8% (w/v) SDS, and 20% glycerol) and collected 0, three, six, 12, and 18 hours after the HF treatment. An anti-Nrf2 antibody (Cell Signaling Technology, #12721, 1:500 dilution) and an anti-α-tubulin antibody (Sigma, T9026, 1:1000 dilution) were used.
(§8) To examine whether the selective decrease in the Keap1 KO-mCherry cells was caused by suppression of Nrf2 accumulation, Nrf2 protein was analyzed by immunoblotting at various points in time after isogenic Hepa1 cells were exposed to HF. […] The above experiment was repeated, and densitometry measurement of immunoblotting bands was conducted (FIG. 1F).

[6] = test system: Nrf2 protein in WT-GFP cells; assay: Immunoblotting of Nrf2 protein after HF treatment; assay type: cell-based; details: 50 nM HF, 0-18 hours, whole cell lysates
Experimental: as §7, §8

[7] = test system: Nrf2-activated lung adenocarcinoma; assay: Tumor suppression in Kras-driven Nrf2-activated lung adenocarcinoma mouse model; assay type: in vivo, Keap1^FB/FB:Kras^G12D mice
From the text: as §1
Adeno-Cre was purchased from VectorBioLabs (Ad-Cre-GFP, catalog no. 1700). Adeno-Cre was administered in the same manner as in Nat Protoc 4, 2009, 1064-1072. Briefly, 1×10^7 plaque-forming units of Adeno-Cre were mixed with Eagle's minimum essential medium (MEM) and calcium chloride. The mixture was incubated on ice for 20 minutes and used for intranasal dropping within one hour of the preparation. Droplets containing the Adeno-Cre mixture were administered to the nostrils of anesthetized mice (eight to 12 weeks old) using a pipette. The mice were allowed to inhale the droplets gradually.
The lung tissues were fixed in 10% formalin (Mildform 10N; FUJIFILM Wako Pure Chemical Corporation, Osaka) and embedded in paraffin. The slices were stained with hematoxylin-eosin (HE) or elastica-Masson (EM). To measure the tumor areas, five slices were cut out with a certain distance and stained with HE. The tumor areas were measured using ImageJ software (NIH).
To examine whether administration of HF or HFm could suppress the progress of Nrf2-activated non-small-cell lung cancer (NSCLC), a Kras-driven lung adenocarcinoma mouse model was used (Genes&Dev., 2001, 15:3243-3248). A mouse having a loxP-Stop-loxP Kras^G12D-knocked-in allele (hereinafter also referred to as “Kras mouse”) was mated with a mouse having a Keap1-flox allele in the loxP site including the third and fourth exons (hereinafter also referred to as “Keap1^FB”) (Am J Respir Cell Mol Biol., 2010 May, 42(5):524-36), and thus a Keap1^FB/FB:Kras^G12D complex mouse was obtained (Cancer Res, 15 Aug. 2020, 80(16):3331-3344). Through Cre recombination by intranasal infection with Adeno-Cre, activation of Kras cancer gene and deletion of Keap1 exons were achieved simultaneously. By this operation, Nrf2-activated lung adenocarcinoma was successfully imitated in mice.
Then, after the tumor was grown for 17 weeks, administration of HF or HFm was started. HF or HFm was intravenously administered every two days, and injection was conducted four times in total. Because the MTD of HF was determined to be 0.75 mg/kg bw (FIG. 2), it was decided to use 0.75 mg/kg bw of HF or HFm in this cancer-bearing mouse experiment. The mice were sacrificed on the eighth day. Various characteristics of the lung tumors were analyzed, and the effectiveness of HF and HFm changing the tumor burden was evaluated (FIG. 4A).
Next, by EM staining of the lung slices, the influence of HF and HFm on the malignancy of tumors was examined (FIG. 4C, bottom). Using images of the slices, the lung lesions were evaluated according to the guidelines of the system of the 2015 World Health Organization Classification of Lung Tumors (Front Oncol., 2017 Aug 28, 7: 193). Briefly, lung tumors include two types, namely a lepidic lesion and a papillary lesion. A lepidic lesion indicates in situ proliferation of cells along the alveolar walls (arrows with “x”), while a papillary lesion indicates proliferation away from the alveolar walls (arrows with “y”). A tumor with many papillary lesions is called Grade II, and it is known that the prognoses of a patient having many papillary tumors is poor compared to that of a patient having many lepidic tumors (Grade I). When the main component of the tumor is composed of a solid sheet and when no recognizable lepidic or papillary pattern is found, the tumor is classified as a solid tumor (Grade III).
as §6

[8] = 0.25 to 0.75 mg/kg iv four times
[9] = 0.75 mg/kg bw iv four times, vs. HFm or saline
[10] = 0.75 mg/kg bw iv four times, vs. saline

O=C(CC1NCCCC1O)Cn1cnc2cc(Br)c(Cl)cc2c1=O (stereo not shown) [HF, Halofuginone hydrobromide]
bone marrow B cell count (B220+) ([1]; 0.75 mg/kg iv four times): decreased
erythroblasts (Ter119+CD71+) of the spleen ([1]; 0.75 mg/kg iv four times): most of the erythroblasts disappeared
acute condition of mice ([1]; 1 mg/kg iv every two days): showed a sign of acute disorder after two injections and were moribund
body weight change ([1]; 1 mg/kg iv, day 1 vs. day 4): −13.4%
mortality ([1]; 1 mg/kg iv, eight mice, after second administration): one mouse in the administration group died
bone marrow precursor cell count (c-Kit+) [1, 8]: did not change largely
bone marrow total cell count [1, 8]: did not change largely
erythroblasts (Ter119+CD71+) of the spleen [1, 8]: decreased largely in a dose-dependent manner
erythrocyte counts in peripheral blood [1, 8]: equivalent in all the groups
leukocyte count in peripheral blood [1, 8]: decreased in a dose-dependent manner
platelet counts in peripheral blood [1, 8]: equivalent in all the groups
thymus weight [1, 8]: decreased with significance in a dose-dependent manner
whole cells of the spleen [1, 8]: decreased largely in a dose-dependent manner
thymus CD4 single-positive (CD4+CD8-) cells ([1]; HF iv four times): decreased
thymus CD8 single-positive (CD4-CD8+) cells ([1]; HF iv four times): tendency towards a decrease
total cells of the thymus ([1]; HF iv four times): decreased
spleen weight ([1]; increasing HF dose, iv four times): decreased stepwisely
maximum tolerated dose (MTD) ([1]; iv every two days four times): 0.75 mg/kg bw
count of Keap1 KO-mCherry cells (relative fluorescence intensity) [2]: decreased significantly in a concentration-dependent manner
count of WT-GFP cells (relative fluorescence intensity) [3]: did not decrease substantially
erythrocyte count in peripheral blood ([4]; 0.25 mg/kg bw iv four times): did not affect
leukocyte count in peripheral blood ([4]; 0.25 mg/kg bw iv four times): decreased the leukocyte count with significance
body weight changes ([4]; 0.25 mg/kg bw iv four times, vs. other groups): equivalent
atrophy of the thymus ([4]; 0.75 mg/kg bw iv four times): remarkable
erythroblasts (Ter119+CD71+) of the spleen ([4]; 0.75 mg/kg bw iv four times): decreased with significance
erythrocytes in peripheral blood ([4]; 0.75 mg/kg bw iv four times): decreased
hematocrit levels ([4]; 0.75 mg/kg bw iv four times): decreased
leukocyte count in peripheral blood ([4]; 0.75 mg/kg bw iv four times): significant decrease
spleen cell count ([4]; 0.75 mg/kg bw iv four times): decreased with significance
spleen weight ([4]; 0.75 mg/kg bw iv four times): decreased with significance
thymus CD4 single-positive cells (CD4+CD8-) count ([4]; 0.75 mg/kg bw iv four times): decreased
thymus double-negative cells (CD4-CD8-) count ([4]; 0.75 mg/kg bw iv four times): decreased
thymus double-positive cells (CD4+CD8+) count ([4]; 0.75 mg/kg bw iv four times): decreased
thymus total cell count ([4]; 0.75 mg/kg bw iv four times): decreased significantly
total cell count of the bone marrow ([4]; 0.75 mg/kg bw iv four times): decreased significantly
bone marrow B cells (B220+) count [4, 9]: decreased significantly
bone marrow macrophages (CD11b+F4/80+) count [4, 9]: decreased significantly
bone marrow neutrophils (CD11b+Ly6G+) count [4, 9]: decreased significantly
bone marrow precursor cells (c-Kit+) count [4, 9]: decreased significantly
thymus CD8 single-positive cells (CD4-CD8+) ([4]; 0.75 mg/kg bw iv four times, vs. saline or HFm): tendency towards a lower frequency
Nrf2 protein level [5]: depleted rapidly
Nrf2 protein level [6]: not detected at all the points in time
number of papillary lesions vs. saline ([7]; 0.25 mg/kg bw iv four times): far smaller
number of solid tumors vs. saline ([7]; 0.25 mg/kg bw iv four times): smaller with significance
lung weight vs. saline-treated mice ([7]; 0.75 mg/kg bw iv every two days four times, day 8): lower with significance
solid adenocarcinomas of Grade III ([7]; 0.75 mg/kg bw iv four times): disappeared completely
number of lepidic (Grade I) tumors [7, 10]: equivalent numbers
number of papillary (Grade II) tumors [7, 10]: equivalent numbers
frequency of the papillary tumors ([7]; 0.75 mg/kg bw iv four times, vs. saline control): lower
tumor area (HE-stained lung sections) ([7]; 0.75 mg/kg bw iv four times, saline-treated group 21%): 10%
lung weight decrease (saline vs. treatment) ([7]; high dose (0.75 mg/kg)): 37.6%
tumor area decrease (saline vs. treatment) ([7]; high dose (0.75 mg/kg)): 9.95%
lung weight decrease (saline vs. treatment) ([7]; low dose (0.25 mg/kg)): 25.7%
tumor area decrease (saline vs. treatment) ([7]; low dose (0.25 mg/kg)): 7.42%
disappearance of solid tumors ([7]; low-dose therapy (0.25 mg/kg bw)): did not disappear completely

Reference: patent publication US20260216343A1, “CONJUGATE, MICELLE AND ANTICANCER AGENT” (TOHOKU UNIVERSITY, priority 2023, published 2026)
